Results on 13 compounds are retold here after patent publication US20240116985A1, “STAPLED PEPTIDES AND METHODS THEREOF” (priority 2020, published 2024).

Test [1] deals with T1, full-length beta-Catenin (Uniprot ID P35222) (Homo sapiens, UniProt P35222).
T1 construct: 10 nM full-length beta-Catenin (Uniprot ID P35222)
T1 sequence (P35222 1-781): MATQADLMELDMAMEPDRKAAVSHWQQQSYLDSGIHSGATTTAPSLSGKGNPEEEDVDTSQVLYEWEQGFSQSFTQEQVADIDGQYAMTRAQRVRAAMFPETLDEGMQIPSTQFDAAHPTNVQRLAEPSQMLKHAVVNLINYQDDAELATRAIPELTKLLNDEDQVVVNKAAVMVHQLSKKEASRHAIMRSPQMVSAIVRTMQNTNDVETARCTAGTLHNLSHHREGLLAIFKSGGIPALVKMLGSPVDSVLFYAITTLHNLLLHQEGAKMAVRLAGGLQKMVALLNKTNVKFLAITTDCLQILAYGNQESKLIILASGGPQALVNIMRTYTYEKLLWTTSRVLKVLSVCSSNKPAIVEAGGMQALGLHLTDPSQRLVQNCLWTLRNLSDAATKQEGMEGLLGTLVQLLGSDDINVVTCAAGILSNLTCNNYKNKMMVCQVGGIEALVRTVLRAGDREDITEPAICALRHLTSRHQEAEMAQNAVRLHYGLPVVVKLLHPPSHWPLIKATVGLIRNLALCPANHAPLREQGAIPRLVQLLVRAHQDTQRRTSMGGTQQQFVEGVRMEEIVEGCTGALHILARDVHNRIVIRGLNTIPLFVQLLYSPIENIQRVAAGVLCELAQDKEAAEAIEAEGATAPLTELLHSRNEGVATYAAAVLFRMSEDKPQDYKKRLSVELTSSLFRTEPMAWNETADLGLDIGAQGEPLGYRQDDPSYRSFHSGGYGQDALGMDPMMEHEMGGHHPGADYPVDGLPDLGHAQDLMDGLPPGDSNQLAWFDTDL
The experiment in a line: Fluorescence polarization IC50 (beta-catenin / 5FAM-TCF4 10-53 competition). The conditions noted are these: fluorescence polarization; read-out: beta-Catenin FP IC50. The format is binding.

The target of test [2] is T2, beta-catenin/TCF4 engagement (Homo sapiens, UniProt P35222).
T2 construct: expressed in transfected cells; host or cells: HEK293
T2 sequence (P35222 1-781): T1 sequence (P35222 1-781)
The experiment in a line: Nano-BRET target engagement assay (B-cat-Halo & TCF4-Luc in HEK293 cells). The note with it: absolute IC50; read-out: NanoBRET Abs IC50. The format is cell-based. Background: BRET reads energy transfer from a luciferase to a nearby fluorophore.

As to `CC(=O)N1CCC[C@]12CC=CCCCC1(CCCC=CCCCOC(=O)N3CC[C@@](C(=O)N[C@@H](Cc4ccsc4)C(=O)N[C@@H](Cc4csc5ccccc45)C(=O)N[C@@H](CCC(N)=O)C(=O)N4CCC[C@H]4CO)(C3)NC(=O)[C@H](CC(C)C)NC(=O)[C@H](Cc3ccccc3)NC(=O)[C@H](C)NC(=O)[C@H](C)NC(=O)[C@H](CN(CC(=O)O)CC(F)(F)F)NC(=O)[C@H](CC(=O)O)NC1=O)NC(=O)[C@H](CC(C)(C)C)NC(=O)[C@H](CC(=O)O)NC2=O` (stereo partly drawn) [I-1681, Ac-PL3-Asp-Npg-B5-Asp-TfeGA-Ala-Ala-Phe-Leu-PyrS2-3Thi-BztA-Gln-Proo1], the IC50 was determined as 0.0185 µM in test [1] and 5.4 µM in test [2].
Consider `CC(=O)N1CCC[C@]12CC=CCCCC1(CCCC=CCCCOC(=O)N3CC[C@@](C(=O)N[C@@H](Cc4ccsc4)C(=O)N[C@@H](Cc4csc5ccccc45)C(=O)N[C@@H](CCC(N)=O)C(=O)N[C@H](CO)[C@@H](C)O)(C3)NC(=O)[C@H](CC(C)C)NC(=O)[C@H](Cc3ccccc3)NC(=O)[C@H](C)NC(=O)[C@H](C)NC(=O)[C@H](CN(CC(=O)O)CC(F)(F)F)NC(=O)[C@H](CC(=O)O)NC1=O)NC(=O)[C@H](CC(C)(C)C)NC(=O)[C@H](CC(=O)O)NC2=O` (stereo partly drawn) [I-1683, Ac-PL3-Asp-Npg-B5-Asp-TfeGA-Ala-Ala-Phe-Leu-PyrS2-3Thi-BztA-Gln-Thro1], for which the figures for the IC50 in test [1] and in test [2] were 0.009 µM and 3.7 µM, respectively.
As for `CC(=O)N1CCC[C@]12CC=CCCCC1(CCCC=CCCCOC(=O)N3CC[C@@](C(=O)N[C@@H](Cc4ccccc4Cl)C(=O)N[C@@H](Cc4csc5ccccc45)C(=O)N[C@@H](CCC(N)=O)C(N)=O)(C3)NC(=O)[C@H](CC(C)C)NC(=O)[C@H](Cc3ccccc3)NC(=O)[C@H](C)NC(=O)C(C)(C)NC(=O)[C@H](Cc3cccc(C(=O)O)c3)NC(=O)[C@H](CC(=O)O)NC1=O)NC(=O)[C@H](CC(C)(C)C)NC(=O)[C@H](CC(=O)O)NC2=O` (stereo partly drawn) [I-1686, Ac-PL3-Asp-Npg-B5-Asp-3COOHF-Aib-Ala-Phe-Leu-PyrS2-2C1F-BztA-Gln-NH2], the IC50 is 0.011 µM in test [1] and 5.4 µM in test [2].
Regarding `CC(=O)N1CCC[C@]12CC=CCCCC1(CCCC=CCCCOC(=O)N3CC[C@@](C(=O)N[C@@H](Cc4ccccc4Cl)C(=O)N[C@@H](Cc4csc5ccccc45)C(=O)N[C@@H](CCC(N)=O)C(N)=O)(C3)NC(=O)[C@H](CC(C)C)NC(=O)[C@H](Cc3ccccc3)NC(=O)CNC(=O)[C@H](C)NC(=O)[C@H](Cc3cccc(C(=O)O)c3)NC(=O)[C@H](CC(=O)O)NC1=O)NC(=O)[C@H](CC(C)(C)C)NC(=O)[C@H](CC(=O)O)NC2=O` (stereo partly drawn) [I-1687, Ac-PL3-Asp-Npg-B5-Asp-3COOHF-Ala-Gly-Phe-Leu-PyrS2-2C1F-BztA-Gln-NH2], the 50% inhibitory concentration (IC50) was found to be 0.042 µM in test [1] and 18.6 µM in test [2].
The corresponding values for `CCCC[C@@H]1NC(=O)[C@H](Cc2cccc(C(=O)O)c2)NC(=O)[C@H](CC(=O)O)NC(=O)C2(CCCC=CCCCOC(=O)N3CC[C@@](C(=O)N[C@@H](Cc4ccccc4Cl)C(=O)N[C@@H](Cc4csc5ccccc45)C(=O)N[C@@H](CCC(N)=O)C(N)=O)(C3)NC(=O)[C@H](CC(C)C)NC(=O)[C@H](Cc3ccccc3)NC(=O)CNC1=O)CCCC=CC[C@]1(CCCN1C(C)=O)C(=O)N[C@@H](CC(=O)O)C(=O)N[C@@H](CC(C)(C)C)C(=O)N2` (stereo partly drawn) [I-1688, Ac-PL3-Asp-Npg-B5-Asp-3COOHF-nLeu-Gly-Phe-Leu-PyrS2-2C1F-BztA-Gln-NH2] are 0.059 µM and 21.5 µM.
In the case of `CC(=O)N1CCC[C@]12CC=CCCCC1(CCCC=CCCCOC(=O)N3CC[C@@](C(=O)N[C@@H](Cc4ccccc4Cl)C(=O)N[C@@H](Cc4csc5ccccc45)C(=O)N[C@@H](CCC(N)=O)C(N)=O)(C3)NC(=O)[C@H](CC(C)C)NC(=O)[C@H](Cc3ccccc3)NC(=O)CNC(=O)C(C)(C)NC(=O)[C@H](Cc3cccc(C(=O)O)c3)NC(=O)[C@H](CC(=O)O)NC1=O)NC(=O)[C@H](CC(C)(C)C)NC(=O)[C@H](CC(=O)O)NC2=O` (stereo partly drawn) [I-1689, Ac-PL3-Asp-Npg-B5-Asp-3COOHF-Aib-Gly-Phe-Leu-PyrS2-2C1F-BztA-Gln-NH2], the IC50 in test [1] is 0.0255 µM; in test [2] it was 12.5 µM.
The corresponding values for `CC(=O)N1CCC[C@]12CC=CCCCC1(CCCC=CCCCOC(=O)N3CC[C@@](C(=O)N[C@@H](Cc4ccccc4Cl)C(=O)N[C@@H](Cc4csc5ccccc45)C(=O)N[C@@H](CCC(N)=O)C(N)=O)(C3)NC(=O)[C@H]([C@@H](C)O)NC(=O)[C@H](Cc3ccccc3)NC(=O)[C@H](C)NC(=O)CNC(=O)[C@H](CN(CC(=O)O)CC(F)(F)F)NC(=O)[C@H](CC(=O)O)NC1=O)NC(=O)[C@H](CC(C)(C)C)NC(=O)[C@H](CC(=O)O)NC2=O` (stereo partly drawn) [I-1691, Ac-PL3-Asp-Npg-B5-Asp-TfeGA-Gly-Ala-Phe-Thr-PyrS2-2C1F-BztA-Gln-NH2] are 0.011 µM and 12.8 µM.
The like results for `CCCC[C@@H]1NC(=O)[C@H](CN(CC(=O)O)CC(F)(F)F)NC(=O)[C@H](CC(=O)O)NC(=O)C2(CCCC=CCCCOC(=O)N3CC[C@@](C(=O)N[C@@H](Cc4ccccc4Cl)C(=O)N[C@@H](Cc4csc5ccccc45)C(=O)N[C@@H](CCC(N)=O)C(N)=O)(C3)NC(=O)[C@H]([C@@H](C)O)NC(=O)[C@H](Cc3ccccc3)NC(=O)[C@H](C)NC1=O)CCCC=CC[C@]1(CCCN1C(C)=O)C(=O)N[C@@H](CC(=O)O)C(=O)N[C@@H](CC(C)(C)C)C(=O)N2` (stereo partly drawn) [I-1692, Ac-PL3-Asp-Npg-B5-Asp-TfeGA-nLeu-Ala-Phe-Thr-PyrS2-2C1F-BztA-Gln-NH2] were, in that order, 0.017 µM and 10.4 µM.
Consider `CC(=O)N1CCC[C@]12CC=CCCCC1(CCCC=CCCCOC(=O)N3CC[C@@](C(=O)N[C@@H](Cc4ccccc4Cl)C(=O)N[C@@H](Cc4csc5ccccc45)C(=O)N[C@@H](CCC(N)=O)C(N)=O)(C3)NC(=O)[C@H]([C@@H](C)O)NC(=O)[C@H](Cc3ccccc3)NC(=O)[C@H](C)NC(=O)C(C)(C)NC(=O)[C@H](CN(CC(=O)O)CC(F)(F)F)NC(=O)[C@H](CC(=O)O)NC1=O)NC(=O)[C@H](CC(C)(C)C)NC(=O)[C@H](CC(=O)O)NC2=O` (stereo partly drawn) [I-1693, Ac-PL3-Asp-Npg-B5-Asp-TfeGA-Aib-Ala-Phe-Thr-PyrS2-2C1F-BztA-Gln-NH2], for which the half-maximal inhibitory concentration (IC50) in test [1] was 0.01 µM; in test [2], 4.6 µM.
On to `CC(=O)N1CCC[C@]12CC=CCCCC1(CCCC=CCCCOC(=O)N3CC[C@@](C(=O)N[C@@H](Cc4ccccc4Cl)C(=O)N[C@@H](Cc4csc5ccccc45)C(=O)N[C@@H](CCC(N)=O)C(N)=O)(C3)NC(=O)[C@H]([C@@H](C)O)NC(=O)[C@H](Cc3ccccc3)NC(=O)CNC(=O)[C@H](C)NC(=O)[C@H](CN(CC(=O)O)CC(F)(F)F)NC(=O)[C@H](CC(=O)O)NC1=O)NC(=O)[C@H](CC(C)(C)C)NC(=O)[C@H](CC(=O)O)NC2=O` (stereo partly drawn) [I-1694, Ac-PL3-Asp-Npg-B5-Asp-TfeGA-Ala-Gly-Phe-Thr-PyrS2-2C1F-BztA-Gln-NH2], for which the half-maximal inhibitory concentration (IC50) came to 0.057 µM in test [1] and 43.6 µM in test [2].
The like results for `CCCC[C@@H]1NC(=O)[C@H](CN(CC(=O)O)CC(F)(F)F)NC(=O)[C@H](CC(=O)O)NC(=O)C2(CCCC=CCCCOC(=O)N3CC[C@@](C(=O)N[C@@H](Cc4ccccc4Cl)C(=O)N[C@@H](Cc4csc5ccccc45)C(=O)N[C@@H](CCC(N)=O)C(N)=O)(C3)NC(=O)[C@H]([C@@H](C)O)NC(=O)[C@H](Cc3ccccc3)NC(=O)CNC1=O)CCCC=CC[C@]1(CCCN1C(C)=O)C(=O)N[C@@H](CC(=O)O)C(=O)N[C@@H](CC(C)(C)C)C(=O)N2` (stereo partly drawn) [I-1695, Ac-PL3-Asp-Npg-B5-Asp-TfeGA-nLeu-Gly-Phe-Thr-PyrS2-2C1F-BztA-Gln-NH2] were, in that order, 0.093 µM and > 20 µM.
Turning to `CC(=O)N1CCC[C@]12CC=CCCCC1(CCCC=CCCCOC(=O)N3CC[C@@](C(=O)N[C@@H](Cc4ccccc4Cl)C(=O)N[C@@H](Cc4csc5ccccc45)C(=O)N[C@@H](CCC(N)=O)C(N)=O)(C3)NC(=O)[C@H]([C@@H](C)O)NC(=O)[C@H](Cc3ccccc3)NC(=O)CNC(=O)C(C)(C)NC(=O)[C@H](CN(CC(=O)O)CC(F)(F)F)NC(=O)[C@H](CC(=O)O)NC1=O)NC(=O)[C@H](CC(C)(C)C)NC(=O)[C@H](CC(=O)O)NC2=O` (stereo partly drawn) [I-1696, Ac-PL3-Asp-Npg-B5-Asp-TfeGA-Aib-Gly-Phe-Thr-PyrS2-2C1F-BztA-Gln-NH2], the results for the IC50 in test [1] and in test [2] were 0.032 µM and 35.5 µM, respectively.
The corresponding values for `CC(=O)N1CCC[C@]12CCCCCCC1(CCCCCCCCCOC(=O)N3CC[C@@](C(=O)N[C@@H](Cc4ccsc4)C(=O)N[C@@H](Cc4csc5ccccc45)C(=O)N[C@@H](CCC(N)=O)C(N)=O)(C3)NC(=O)[C@H](CC(C)C)NC(=O)[C@H](Cc3ccccc3)NC(=O)[C@H](C)NC(=O)[C@H](C)NC(=O)[C@H](CN(CC(=O)O)CC(F)(F)F)NC(=O)[C@H](CC(=O)O)NC1=O)NC(=O)[C@H](CC(C)(C)C)NC(=O)[C@H](CC(=O)O)NC2=O` (stereo partly drawn) [I-1697, Ac-PL3-Asp-Npg-B5-Asp-TfeGA-Ala-Ala-Phe-Leu-PyrS3-3Thi-BztA-Gln-NH2] are 0.179 µM and > 20 µM.

For orientation: IC50 means the concentration that gives 50% inhibition.
